Like-named read-outs stand apart in the source and are kept apart here. *1 amine or outer side, *2 acyl side, *3 side chain or, on linkers, in order; H or OH if unused. Where a SMILES comes first, the peptide text is derived from it. Bridges are numbered along the chain shown (N, C = ends). [ ]: non-standard residue; d: D form. The star is where a group is joined. ξ: configuration not given here. hPhe(3-Cl-4-CF3) = N[C@@H](CCc1ccc(C(F)(F)F)c(Cl)c1)C(=O)O; X26 = C=CCN([C@@H](Cc1ccccc1)C(=O)[*:2])[*:1]; NMeGly(cPent) = CN[C@H](C(=O)O)C1CCCC1; NMeNle(5-ene) = C=CCC[C@H](NC)C(=O)O; dIle(3ξ) = CCC(C)[C@@H](N)C(=O)O; NMeD = CN[C@@H](CC(=O)O)C(=O)O; NMeL = CN[C@@H](CC(C)C)C(=O)O; Morpholide = C1CN(*)CCO1; Ac5c = NC1(C(=O)O)CCCC1; Sar = CNCC(=O)O
Tests used:
[1] = biological target: GDP-bound HRAS wild-type protein (Homo sapiens, UniProt P01112); assay: Binding to HRAS by surface plasmon resonance (SPR), Single Cycle Kinetics; conditions: SPR, GDP-bound HRAS wild-type protein vs GDP-bound KRAS wild-type protein
Chain of GDP-bound HRAS wild-type protein (P01112 whole entry): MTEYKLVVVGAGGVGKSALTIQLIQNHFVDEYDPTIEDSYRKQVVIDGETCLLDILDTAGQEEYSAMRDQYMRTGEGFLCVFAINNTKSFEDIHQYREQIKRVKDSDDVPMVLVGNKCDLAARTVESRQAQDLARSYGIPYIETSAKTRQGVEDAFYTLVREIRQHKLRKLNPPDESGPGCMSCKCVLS

[2] = biological target: GDP-bound NRAS wild-type protein (Homo sapiens, UniProt P01111); assay: Binding to NRAS by surface plasmon resonance (SPR), Single Cycle Kinetics; conditions: SPR, GDP-bound NRAS wild-type protein vs GDP-bound KRAS wild-type protein
Chain of GDP-bound NRAS wild-type protein (P01111 whole entry): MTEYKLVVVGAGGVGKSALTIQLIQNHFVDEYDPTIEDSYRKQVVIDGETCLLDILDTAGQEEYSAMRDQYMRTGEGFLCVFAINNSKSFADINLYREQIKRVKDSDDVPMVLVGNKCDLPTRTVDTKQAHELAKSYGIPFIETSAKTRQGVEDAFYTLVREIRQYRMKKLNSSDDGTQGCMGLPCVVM

[3] = biological target: GDP-bound KRAS wild-type protein (Homo sapiens, UniProt P01116); assay: Binding to KRAS by surface plasmon resonance (SPR), Single Cycle Kinetics; conditions: GDP-bound KRAS wild-type protein, read-out: KRAS KD
Chain of GDP-bound KRAS wild-type protein (P01116 whole entry): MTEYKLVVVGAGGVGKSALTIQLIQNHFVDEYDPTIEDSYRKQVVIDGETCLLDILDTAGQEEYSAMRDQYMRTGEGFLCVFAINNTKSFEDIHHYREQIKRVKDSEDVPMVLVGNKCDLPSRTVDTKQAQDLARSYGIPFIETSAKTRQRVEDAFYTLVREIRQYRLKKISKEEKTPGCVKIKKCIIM

[4] = SPR Single Cycle Kinetics, 1:1 binding model

Compound: CCC[C@H]1C(=O)N[C@@H](C2CCCC2)C(=O)N(C)CC(=O)N(C)[C@H]2C/C=C\CCN(C2=O)[C@@H](Cc2ccc(C)cc2)C(=O)N(C)CC(=O)N[C@@H](CCc2ccc(C(F)(F)F)c(Cl)c2)C(=O)N2C[C@H](OCC)C[C@H]2C(=O)NC2(CC(C)(C)C2)C(=O)N(C)[C@@H](C2CCCC2)C(=O)N(C)[C@H](C(=O)N(C)C)CC(=O)N1C [PP2198]
- HRAS/KRAS (ratio of KD value for HRAS to KD value for KRAS) [1]: A (a compound having 10 or more and less than 20 is denoted as A)
- NRAS/KRAS (ratio of KD value for NRAS to KD value for KRAS) [2]: A (a compound having 10 or more and less than 20 is denoted as A)
- Kd ([3]; SPR, Single Cycle Kinetics): 0.21 nM

Compound: CCO[C@@H]1C[C@H]2C(=O)NC3(CCC3)C(=O)N(C)[C@@H](C3CCCC3)C(=O)N(CCc3ccccc3)[C@H](C(=O)N(C)C)CC(=O)N(C)[C@@H](CC)C(=O)N[C@@H]([C@@H](C)CC)C(=O)N(C)CC(=O)N(C)[C@H]3CCCCCN(C3=O)[C@@H](Cc3ccc(C(F)(F)F)cc3)C(=O)N(C)CC(=O)N[C@@H](CCc3cc(F)c(C(F)(F)F)c(F)c3)C(=O)N2C1 [PP0637]
- HRAS/KRAS (ratio of KD value with respect to HRAS to KD value with respect to KRAS) [1]: B (a compound having 3 or more and less than 10 is denoted as B)
- NRAS/KRAS (ratio of KD value with respect to NRAS to KD value with respect to KRAS) [2]: B (a compound having 3 or more and less than 10 is denoted as B)
- Kd [3, 4]: 23 nM

Compound: C=CCC[C@H]1C(=O)N(CC=C)[C@@H](Cc2ccccc2)C(=O)N(C)CC(=O)N[C@@H](CCc2ccc(C(F)(F)F)c(Cl)c2)C(=O)N2CCC[C@H]2C(=O)NC2(CCCC2)C(=O)N(C)[C@@H](C2CCCC2)C(=O)N(C)[C@H](C(=O)N2CCOCC2)CC(=O)N(C)[C@@H](CC(C)C)C(=O)N[C@H](C(C)CC)C(=O)N(C)CC(=O)N1C (stereo partly drawn) [PP0599] ([NMeL][dIle(3ξ)][Sar][NMeNle(5-ene)][X26][Sar][hPhe(3-Cl-4-CF3)]P[Ac5c][NMeGly(cPent)][NMeD]-Morpholide; lactam N-11)
- HRAS/KRAS (ratio of KD value with respect to HRAS to KD value with respect to KRAS) [1]: B (a compound having 3 or more and less than 10 is denoted as B)
- NRAS/KRAS (ratio of KD value with respect to NRAS to KD value with respect to KRAS) [2]: C (A compound having a KD ratio of 0.1 or more and less than 3 is denoted as C)
- Kd [3, 4]: 180 nM

Compound: CCO[C@@H]1C[C@H]2C(=O)NC3(CCCC3)C(=O)N(C)[C@@H](C3CCCC3)C(=O)N(C)[C@H](C(=O)N(C)C)CC(=O)N(C)[C@@H](CC(C)C)C(=O)N[C@@H]([C@@H](C)CC)C(=O)N(C)CC(=O)N(C)[C@H]3CCCCCN(C3=O)[C@@H](Cc3ccc(C(F)(F)F)cc3)C(=O)N(C)CC(=O)N[C@@H](CCc3cc(F)c(C(F)(F)F)c(F)c3)C(=O)N2C1 [PP0468]
- HRAS/KRAS (ratio of KD value with respect to HRAS to KD value with respect to KRAS) [1]: B (a compound having 3 or more and less than 10 is denoted as B)
- NRAS/KRAS (ratio of KD value with respect to NRAS to KD value with respect to KRAS) [2]: B (a compound having 3 or more and less than 10 is denoted as B)
- Kd [3, 4]: 0.8 nM

Compound: CCO[C@@H]1C[C@H]2C(=O)NC3(CCCC3)C(=O)N(C)[C@@H](C3CCCC3)C(=O)N(C)[C@H](C(=O)N3CCOCC3)CC(=O)N(C)[C@@H](CC(C)C)C(=O)N[C@@H]([C@@H](C)CC)C(=O)N(C)CC(=O)N(C)[C@H]3C[C@@H](C)CCN(C3=O)[C@@H](Cc3ccc(C(F)(F)F)cc3)C(=O)N(C)CC(=O)N[C@@H](CCc3cc(F)c(C(F)(F)F)c(F)c3)C(=O)N2C1 [PP1024]
- HRAS/KRAS (ratio of KD value for HRAS to KD value for KRAS) [1]: B (a compound having 3 or more and less than 10 is denoted as B)
- NRAS/KRAS (ratio of KD value for NRAS to KD value for KRAS) [2]: B (a compound having 3 or more and less than 10 is denoted as B)
- Kd ([3]; SPR, Single Cycle Kinetics): 0.088 nM

Source: patent publication US20240158446A1, “CYCLIC COMPOUND HAVING SELECTIVE INHIBITORY ACTION ON KRAS OVER HRAS AND NRAS” (CHUGAI SEIYAKU KABUSHIKI KAISHA, priority 2021, published 2024)
